Source: PubChem BioAssay (NCI)
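In this assay, cells in 96-well plates receive the compound at five concentrations for 48 hours. Endpoints are linearly interpolated between the surrounding concentrations. TGI is the concentration that stops growth completely.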

Assays:
Test in all cases: NCI tumour cell line growth inhibition, 48 h
786-0 renal = system: 786-0 renal
A498 renal = system: A498 renal
A549 NSCLC = system: A549 NSCLC
ACHN renal = system: ACHN renal
BT-549 breast = system: BT-549 breast
CAKI-1 renal = system: CAKI-1 renal
CCRF-CEM leukemia = system: CCRF-CEM leukemia
COLO 205 colon = system: COLO 205 colon
DU-145 prostate = system: DU-145 prostate
EKVX NSCLC = system: EKVX NSCLC
HCC-2998 colon = system: HCC-2998 colon
HCT-116 colon = system: HCT-116 colon
HCT-15 colon = system: HCT-15 colon
HL-60(TB) leukemia = system: HL-60(TB) leukemia
HOP-62 NSCLC = system: HOP-62 NSCLC
HS 578T breast = system: HS 578T breast
HT29 colon = system: HT29 colon
IGROV1 ovarian = system: IGROV1 ovarian
K-562 leukemia = system: K-562 leukemia
KM12 colon = system: KM12 colon
LOX IMVI melanoma = system: LOX IMVI melanoma
M14 melanoma = system: M14 melanoma
MALME-3M melanoma = system: MALME-3M melanoma
MCF7 breast = system: MCF7 breast
MDA-MB-231 breast = system: MDA-MB-231 breast
MDA-MB-435 = system: MDA-MB-435
MDA-N = system: MDA-N
MOLT-4 leukemia = system: MOLT-4 leukemia
NCI-H226 lung = system: NCI-H226 lung
NCI-H23 lung = system: NCI-H23 lung
NCI-H460 lung = system: NCI-H460 lung
NCI-H522 lung = system: NCI-H522 lung
NCI/ADR-RES ovarian = system: NCI/ADR-RES ovarian
OVCAR-3 ovarian = system: OVCAR-3 ovarian
OVCAR-4 ovarian = system: OVCAR-4 ovarian
OVCAR-5 ovarian = system: OVCAR-5 ovarian
OVCAR-8 ovarian = system: OVCAR-8 ovarian
PC-3 prostate = system: PC-3 prostate
RPMI-8226 leukemia = system: RPMI-8226 leukemia
SF-268 CNS = system: SF-268 CNS
SF-295 CNS = system: SF-295 CNS
SF-539 CNS = system: SF-539 CNS
SK-MEL-2 melanoma = system: SK-MEL-2 melanoma
SK-MEL-28 melanoma = system: SK-MEL-28 melanoma
SK-MEL-5 melanoma = system: SK-MEL-5 melanoma
SK-OV-3 ovarian = system: SK-OV-3 ovarian
SN12C renal = system: SN12C renal
SNB-19 CNS = system: SNB-19 CNS
SNB-75 CNS = system: SNB-75 CNS
SR leukemia = system: SR leukemia
SW-620 colon = system: SW-620 colon
T-47D breast = system: T-47D breast
TK-10 renal = system: TK-10 renal
U251 CNS = system: U251 CNS
UACC-257 melanoma = system: UACC-257 melanoma
UACC-62 melanoma = system: UACC-62 melanoma
UO-31 renal = system: UO-31 renal
HOP-92 NSCLC = system: HOP-92 NSCLC
RXF 393 renal = system: RXF 393 renal

## N#Cc1ncn(CCO)c1N
786-0 renal
  TGI: > 100 µM
A498 renal
  TGI: > 100 µM
A549 NSCLC
  TGI: > 100 µM
ACHN renal
  TGI: > 100 µM
BT-549 breast
  TGI: > 100 µM
CAKI-1 renal
  TGI: > 100 µM
CCRF-CEM leukemia
  TGI: > 100 µM
COLO 205 colon
  TGI: > 100 µM
DU-145 prostate
  TGI: > 100 µM
EKVX NSCLC
  TGI: > 100 µM
HCC-2998 colon
  TGI: > 100 µM
HCT-116 colon
  TGI: > 100 µM
HCT-15 colon
  TGI: > 100 µM
HL-60(TB) leukemia
  TGI: > 100 µM
HOP-62 NSCLC
  TGI: > 100 µM
HS 578T breast
  TGI: > 100 µM
HT29 colon
  TGI: > 100 µM
IGROV1 ovarian
  TGI: > 100 µM
K-562 leukemia
  TGI: > 100 µM
KM12 colon
  TGI: > 100 µM
LOX IMVI melanoma
  TGI: > 100 µM
M14 melanoma
  TGI: > 100 µM
MALME-3M melanoma
  TGI: > 100 µM
MCF7 breast
  TGI: > 100 µM
MDA-MB-231 breast
  TGI: > 100 µM
MDA-MB-435
  TGI: > 100 µM
MDA-N
  TGI: > 100 µM
MOLT-4 leukemia
  TGI: > 100 µM
NCI-H226 lung
  TGI: > 100 µM
NCI-H23 lung
  TGI: > 100 µM
NCI-H460 lung
  TGI: > 100 µM
NCI-H522 lung
  TGI: > 100 µM
NCI/ADR-RES ovarian
  TGI: > 100 µM
OVCAR-3 ovarian
  TGI: > 100 µM
OVCAR-4 ovarian
  TGI: > 100 µM
OVCAR-5 ovarian
  TGI: > 100 µM
OVCAR-8 ovarian
  TGI: > 100 µM
PC-3 prostate
  TGI: > 100 µM
RPMI-8226 leukemia
  TGI: > 100 µM
SF-268 CNS
  TGI: > 100 µM
SF-295 CNS
  TGI: > 100 µM
SF-539 CNS
  TGI: > 100 µM
SK-MEL-2 melanoma
  TGI: > 100 µM
SK-MEL-28 melanoma
  TGI: > 100 µM
SK-MEL-5 melanoma
  TGI: > 100 µM
SK-OV-3 ovarian
  TGI: > 100 µM
SN12C renal
  TGI: > 100 µM
SNB-19 CNS
  TGI: > 100 µM
SNB-75 CNS
  TGI: > 100 µM
SR leukemia
  TGI: > 100 µM
SW-620 colon
  TGI: > 100 µM
T-47D breast
  TGI: > 100 µM
TK-10 renal
  TGI: > 100 µM
U251 CNS
  TGI: > 100 µM
UACC-257 melanoma
  TGI: > 100 µM
UACC-62 melanoma
  TGI: > 100 µM
UO-31 renal
  TGI: > 100 µM

## COc1ccc(NC(=O)CC(=O)NNC(Sc2ccccc2)c2cc(N=Nc3ccc(Br)cc3)ccc2O)cc1 (stereo unspecified)
786-0 renal
  TGI: > 10 µM
A498 renal
  TGI: > 10 µM
A549 NSCLC
  TGI: > 10 µM
ACHN renal
  TGI: > 10 µM
BT-549 breast
  TGI: > 10 µM
CAKI-1 renal
  TGI: > 10 µM
CCRF-CEM leukemia
  TGI: > 10 µM
COLO 205 colon
  TGI: > 10 µM
DU-145 prostate
  TGI: > 10 µM
EKVX NSCLC
  TGI: > 10 µM
HCC-2998 colon
  TGI: > 10 µM
HCT-116 colon
  TGI: > 10 µM
HCT-15 colon
  TGI: > 10 µM
HL-60(TB) leukemia
  TGI: > 10 µM
HOP-62 NSCLC
  TGI: > 10 µM
HOP-92 NSCLC
  TGI: > 10 µM
HS 578T breast
  TGI: > 10 µM
HT29 colon
  TGI: > 10 µM
IGROV1 ovarian
  TGI: > 10 µM
K-562 leukemia
  TGI: > 10 µM
KM12 colon
  TGI: > 10 µM
LOX IMVI melanoma
  TGI: > 10 µM
M14 melanoma
  TGI: > 10 µM
MALME-3M melanoma
  TGI: > 10 µM
MCF7 breast
  TGI: > 10 µM
MDA-MB-231 breast
  TGI: > 10 µM
MDA-MB-435
  TGI: > 10 µM
MDA-N
  TGI: > 10 µM
MOLT-4 leukemia
  TGI: > 10 µM
NCI-H226 lung
  TGI: > 10 µM
NCI-H23 lung
  TGI: > 10 µM
NCI-H460 lung
  TGI: > 10 µM
NCI-H522 lung
  TGI: > 10 µM
NCI/ADR-RES ovarian
  TGI: > 10 µM
OVCAR-3 ovarian
  TGI: > 10 µM
OVCAR-4 ovarian
  TGI: > 10 µM
OVCAR-5 ovarian
  TGI: > 10 µM
OVCAR-8 ovarian
  TGI: > 10 µM
PC-3 prostate
  TGI: > 10 µM
RPMI-8226 leukemia
  TGI: > 10 µM
RXF 393 renal
  TGI: > 10 µM
SF-268 CNS
  TGI: > 10 µM
SF-295 CNS
  TGI: > 10 µM
SF-539 CNS
  TGI: > 10 µM
SK-MEL-2 melanoma
  TGI: > 10 µM
SK-MEL-28 melanoma
  TGI: > 10 µM
SK-MEL-5 melanoma
  TGI: > 10 µM
SK-OV-3 ovarian
  TGI: > 10 µM
SN12C renal
  TGI: > 10 µM
SNB-19 CNS
  TGI: > 10 µM
SNB-75 CNS
  TGI: > 10 µM
SR leukemia
  TGI: > 10 µM
SW-620 colon
  TGI: > 10 µM
T-47D breast
  TGI: > 10 µM
TK-10 renal
  TGI: > 10 µM
U251 CNS
  TGI: > 10 µM
UACC-257 melanoma
  TGI: > 10 µM
UACC-62 melanoma
  TGI: > 10 µM
UO-31 renal
  TGI: > 10 µM
